Common to all, as to assay type: cell-based
Assay [1] concerns MV-4-11 cells. The assay can be described thus: Antiproliferative activity against MV-4-11 cells (CellTiter-Glo, 72 h). Conditions: Homo sapiens, MV4-11; MV-4-11 cells, 72 h; read-out: Antiproliferative activity IC50. The method in brief: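 MV-4-11 cells in RPMI + 10% FBS plated at 5,000 cells/well and pre-incubated 24 h at 37 °C, 5% CO2. Compounds were then added (final DMSO 0.2%) and cells incubated 72 h. Viability was read by CellTiter-Glo luminescence after 30 min equilibration at room temperature.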

For assay [2], the target named is T1, GSPT1 protein (Homo sapiens, UniProt P15170).
T1 construct: The whole cell lysate was prepared using a RIPA lysis buffer; endogenous in cells; host or cells: NB-4 cells
T1 sequence (P15170 whole entry): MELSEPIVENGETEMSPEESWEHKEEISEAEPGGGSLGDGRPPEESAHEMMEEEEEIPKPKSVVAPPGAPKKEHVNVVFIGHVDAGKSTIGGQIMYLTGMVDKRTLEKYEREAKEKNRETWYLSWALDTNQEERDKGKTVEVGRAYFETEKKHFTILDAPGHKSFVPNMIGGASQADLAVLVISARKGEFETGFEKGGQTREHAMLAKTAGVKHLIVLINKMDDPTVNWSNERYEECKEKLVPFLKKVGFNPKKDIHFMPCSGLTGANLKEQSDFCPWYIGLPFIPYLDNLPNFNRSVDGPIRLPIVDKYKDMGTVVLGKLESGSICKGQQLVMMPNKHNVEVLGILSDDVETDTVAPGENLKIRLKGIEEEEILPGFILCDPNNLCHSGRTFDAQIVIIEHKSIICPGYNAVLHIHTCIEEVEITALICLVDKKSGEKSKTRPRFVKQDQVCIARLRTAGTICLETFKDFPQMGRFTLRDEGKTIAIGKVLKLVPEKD
Nature of the assay: Degradation of GSPT1 protein in NB-4 cells (Western blot). The following applies: NB-4 cells, compound 1 μM, 6 h; read-out: GSPT1 degradation. A digest of the protocol: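 GSPT1 levels were read by Western blot (4-20% SDS-PAGE, PVDF, overnight primary antibody at 4 °C) on lysates of NB-4 cells.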

The subject of assay [3] is NCI-H929 cells. The assay can be described thus: Antiproliferative activity against various tumor cells: NCI-H929. Conditions: Homo sapiens; NCI-H929 cells, 72 h; read-out: Antiproliferative activity IC50 NCI-H929. The method, then: (§1) U937, NCI-H929, AML-2, and MOLM-13 cells in the logarithmic growth phase were diluted in media RPMI+10% FBS, RPMI+10% FBS, MEMα+20% FBS, RPMI+20% FBS, respectively, and plated at 4,000 cells/well in 96-well whole black plates (WHB) with 50 μL/well. After plating, the plates were incubated in an incubator at 5% CO2 and 37° C. for 24 h before the compounds were added. The compounds were prepared into a 10 mM stock solution in DMSO and diluted in a culture medium to the desired concentrations (a final DMSO concentration of 0.2%). […] The plates were incubated at 5% CO2 and 37° C. for 72 h. After the incubation was complete, the plates were equilibrated at room temperature for 30 min. CellTiter-Glo® Reagent (Promega G7573) was added at 100 μL/well. The plates were shaken for 12 min on a microplate shaker. The luminescence value was measured at room temperature by the GloMax navigator (Promega GM2010).

For assay [4], the system named is U937 cells. Nature of the assay: Antiproliferative activity against various tumor cells: U937. Conditions: Homo sapiens, U-937; U937 cells, 72 h; read-out: Antiproliferative activity IC50 U937. How it is done:
as §1

Assay [5] concerns MOLM-13 cells. Nature of the assay: Antiproliferative activity against various tumor cells: MOLM-13. Conditions: Homo sapiens; MOLM-13 cells, 72 h; read-out: Antiproliferative activity IC50 MOLM-13. How it is done: as §1
Assay [6] concerns AML-2 cells. Nature of the assay: Antiproliferative activity against various tumor cells: AML-2. Conditions: AML-2 cells, 72 h; read-out: Antiproliferative activity IC50 AML-2. The method, then:
as §1

Structures are written as SMILES.

For 18 compounds, IC50 and inhibition results are on record in US20250282746A1, “HALOGEN-SUBSTITUTED ISOINDOLINE COMPOUND AND USE THEREOF” (CHENGDU FENDI PHARMACEUTICAL CO., LTD., priority 2022, published 2025).

On to `CC(C)(C)Oc1ccc(C(=O)NCc2ccc3c(c2F)CN(C2CCC(=O)NC2=O)C3=O)cc1` (stereo not shown) [FDAB-103], for which, in assay [1], the IC50 was < 1 nM. Moreover, in assay [2], the inhibition at 1 µM is > 80%.
In the case of `O=C1CCC(N2Cc3cc(CNC(=O)c4cc5ccccc5o4)c(Cl)cc3C2=O)C(=O)N1` (stereo not shown) [FDAB-71], the IC50 in assay [1] was > 1000 nM. The inhibition at 1 µM in assay [2] was < 25%.
In the same order, the values of `CCOC(=O)CN1C(=O)CCC(N2Cc3c(ccc(CNC(=O)c4ccc(Cl)cc4)c3F)C2=O)C1=O` (stereo not shown) [FDAB-126] are > 1000 nM and < 25%.
The like results for `NS(=O)(=O)c1cc(C(=O)NCc2ccc3c(c2F)CN(C2CCC(=O)NC2=O)C3=O)ccc1Cl` (stereo not shown) [FDAB-115] were, in that order, > 1000 nM and < 25%.
With `O=C1CCC(N2Cc3c(ccc(CNC(=O)c4ccc5ccccc5n4)c3F)C2=O)C(=O)N1` (stereo not shown) [FDAB-66], in assay [1], the IC50 was 10 to 100 nM. In assay [2], the inhibition at 1 µM was > 80%.
For `O=C1CCC(N2Cc3c(ccc(CNC(=O)c4ccc(Cl)c(F)c4)c3Cl)C2=O)C(=O)N1` (stereo not shown) [FDAB-118], the IC50 in assay [1] lay in the range of 10 to 100 nM. For the same compound, the inhibition at 1 µM in assay [2] was 50 to 80%.
Regarding `CCCCOc1ccc(CC(=O)NCc2ccc3c(c2F)CN(C2CCC(=O)NC2=O)C3=O)cc1` (stereo not shown) [FDAB-132], the IC50 in assay [1] was < 1 nM. Besides, the inhibition at 1 µM in assay [2] is > 80%.
As to `O=C(Cc1cc2ccccc2s1)NCc1ccc2c(c1F)CN(C1CCC(=O)NC1=O)C2=O` (stereo not shown) [FDAB-136], in assay [1], the IC50 lay within 1 to 10 nM. Besides, the inhibition at 1 µM in assay [2] is > 80%.
The like results for `O=C1CCC(N2Cc3c(ccc(CNC(=O)c4ccc(Cl)cn4)c3Cl)C2=O)C(=O)N1` (stereo not shown) [FDAB-80] were, in that order, > 1000 nM and < 25%.
For `N#Cc1cc(F)c2c(c1)CN(C1CCC(=O)NC1=O)C2=O` (stereo not shown) [FDAB-7], in assay [1], the IC50 is > 1000 nM. Also, the inhibition at 1 µM in assay [2] was < 25%.
As to `O=C(C#Cc1ccc(-c2ccccc2)cc1)NCc1ccc2c(c1F)CN(C1CCC(=O)NC1=O)C2=O` (stereo not shown) [FDAB-147], the IC50 in assay [1], in assay [3], in assay [4], in assay [5] and in assay [6] was < 1 nM each time. The inhibition at 1 µM in assay [2] was > 80%.
For the compound `O=C1CCC(N2Cc3cc(CNC(=O)c4cccc(O)c4)c(F)cc3C2=O)C(=O)N1` (stereo not shown) [FDAB-36], in assay [1], the 50% inhibitory concentration (IC50) is > 1000 nM. In addition, the inhibition at 1 µM in assay [2] was < 25%.
On to `CCCc1ccc(CNCc2ccc3c(c2F)CN(C2CCC(=O)NC2=O)C3=O)cc1` (stereo not shown) [FDAB-167], for which, in assay [1], the IC50 is 1 to 10 nM. The inhibition at 1 µM in assay [2] is > 80%.
The like results for `O=C1CCC(N2Cc3c(ccc(CNCc4cc5cc(Cl)ccc5o4)c3F)C2=O)C(=O)N1` (stereo not shown) [FDAB-165] were, in that order, 1 to 10 nM and > 80%.
For the compound `N#Cc1cc2c(cc1F)C(=O)N(C1CCC(=O)NC1=O)C2` (stereo not shown) [FDAB-4], in assay [1], the IC50 was > 1000 nM. For the same compound, the inhibition at 1 µM in assay [2] is < 25%.
In the same order, the values of `O=C1CCC(N2Cc3cc(CNC(=O)c4cc5cc(F)ccc5o4)c(F)cc3C2=O)C(=O)N1` (stereo not shown) [FDAB-35] are 10 to 100 nM and 50 to 80%.
On to `N#Cc1ccc2c(c1F)CN(C1CCC(=O)NC1=O)C2=O` (stereo not shown) [FDAB-1], for which the IC50 in assay [1] is > 1000 nM. Moreover, the inhibition at 1 µM in assay [2] was < 25%.
Turning to `O=C1CCC(N2Cc3cc(CNC(=O)c4nc5ccccc5s4)c(F)cc3C2=O)C(=O)N1` (stereo not shown) [FDAB-32], the IC50 in assay [1] fell in the range of 10 to 100 nM. Also, the inhibition at 1 µM in assay [2] was > 80%.
